SMILES strings stand for the structures.

This assay has as its system MDA-MB-231 cells. The assay can be described thus: Extracellular lactate production inhibition after 4 h, MDA-MB-231. The following applies: Homo sapiens, MDA-MB-231.
With `Cc1ccc2c(C)ccnc2c1S(=O)(=O)Nc1ccccc1C#Cc1ccc(C(=O)O)nc1` [Compound 310, 5-{2-[2-(4,7-dimethylquinoline-8-sulfonamido)phenyl]ethynyl}pyridine-2-carboxylic acid], the IC50 (in general, the point on the concentration scale where inhibition reaches its midpoint) was in the range of 10 to 100 nM. As to `O=C(O)c1ccc(C#Cc2cc(Cl)ccc2NS(=O)(=O)c2ccc(Cl)cc2)cc1` [Compound 269, 4-[5-Chloro-2-(4-chloro-benzenesulfonylamino)-phenylethynyl]-benzoic acid, reference compound], the IC50 fell in the range of 1000 to 100000 nM.

`O=C(O)c1ccc(C#Cc2ccccc2NS(=O)(=O)c2cccc3c2OCCO3)cc1` [Compound 254, 4-[2-(2,3-Dihydro-benzo[1,4]dioxine-5-sulfonylamino)-phenylethynyl]-benzoic acid] returned an IC50 of 1000 to 100000 nM. For `COc1cc(C(=O)O)ncc1C#Cc1ccccc1NS(=O)(=O)c1ccc(OC(F)(F)F)c2cccnc12` [Compound 389, 4-Methoxy-5-[2-(5-trifluoromethoxy-quinoline-8-sulfonylamino)-phenylethynyl]-pyridine-2-carboxylic acid], the IC50 lay in the range of 1 to 10 nM.

Take `COc1ccc(S(C)(=O)=Nc2ccccc2C#Cc2cnc(C(=O)O)c3ccccc23)cc1` (stereo not shown) [Compound 449, 4-[2-(2-{[(4-methoxyphenyl)(methyl)oxo-λ6-sulfanylidene]amino}phenyl)ethynyl]-isoquinoline-1-carboxylic acid]: the IC50 lay in the range of 1000 to 100000 nM.

Consider `COc1cnc2cc(S(=O)(=O)Nc3ccccc3C#Cc3ccc(C(=O)O)cc3)ccc2n1` [Compound 82, 4-{2-[2-(2-methoxyquinoxaline-6-sulfonamido)phenyl]ethynyl}benzoic acid], for which the IC50 lay in the range of 1000 to 100000 nM. Molecule `COc1ncc(S(=O)(=O)Nc2ccccc2C#Cc2ccc(C(=O)O)cc2)cc1Br` [Compound 48, 4-{2-[2-(5-bromo-6-methoxypyridine-3-sulfonamido)phenyl]ethynyl}benzoic acid] registered an IC50 of 100 to 1000 nM. For the molecule `COc1ccc(S(=O)(=O)Nc2ccc(F)cc2C#Cc2ccc(C(=O)O)cc2)c2ccccc12` [Compound 25, 4-{2-[5-fluoro-2-(4-methoxynaphthalene-1-sulfonamido)phenyl]ethynyl}benzoic acid], the IC50 lay in the range of 100 to 1000 nM. The figure for `O=C(O)c1ncc(C#Cc2ccccc2NS(=O)(=O)c2cccc3c(Cl)ccnc23)cc1Cl` [Compound 323, 3-chloro-5-{2-[2-(4-chloroquinoline-8-sulfonamido)phenyl]ethynyl}pyridine-2-carboxylic acid] is 1000 to 100000 nM; for `COc1ccccc1-c1ccccc1CN(C=O)c1ccccc1C#Cc1ccc(C(=O)O)nc1` [Compound 189, 5-(2-{2-[N-({2′-methoxy-[1,1′-biphenyl]-2-yl}methyl)formamido]phenyl}-ethynyl)pyridine-2-carboxylic acid] it is 100 to 1000 nM; for `CC(C)Oc1ccc(S(=O)(=O)Nc2ccccc2C#Cc2cnc(C(=O)O)c3ccccc23)c2ncccc12` [Compound 447, 4-(2-{2-[5-(propan-2-yloxy)quinoline-8-sulfonamido]phenyl}ethynyl)iso-quinoline-1-carboxylic acid] it is 100 to 1000 nM.

In the case of `O=C(O)c1ccc(C#Cc2ccccc2NS(=O)(=O)c2ccc(C3=CCCCC3)cc2)cn1` [Compound 177, 5-(2-{2-[4-(cyclohex-1-en-1-yl)benzenesulfonamido]phenyl}-ethynyl)pyridine-2-carboxylic acid], the half-maximal inhibitory concentration (IC50) is 100 to 1000 nM. As to `O=C(O)c1ccc(C#Cc2ccccc2NS(=O)(=O)c2c(Cl)ccc3c(Cl)ccnc23)cn1` [Compound 302, 5-{2-[2-(4,7-dichloroquinoline-8-sulfonamido)phenyl]ethynyl}pyridine-2-carboxylic acid], the IC50 lay in the range of 10 to 100 nM. On to `Cc1ccc2cccnc2c1S(=O)(=O)Nc1ccccc1C#Cc1cnc(C(=O)O)cc1-c1ccccc1` [Compound 226, 5-{2-[2-(7-methylquinoline-8-sulfonamido)phenyl]ethynyl}-4-phenylpyridine-2-carboxylic acid], for which the IC50 is 10 to 100 nM. `COCCOC(=O)c1ccc(C#Cc2ccccc2NS(=O)(=O)c2c(C)ccc3cccnc23)cn1` [Compound 410, 2-methoxyethyl 5-{2-[2-(7-methylquinoline-8-sulfonamido)phenyl]ethynyl}pyridine-2-carboxylate] came in with an IC50 of 100 to 1000 nM. In turn, `O=C(O)c1ccc(C#Cc2ccccc2NS(=O)(=O)c2ccc3c(c2)OCCO3)cc1` [Compound 250, 4-[2-(2,3-Dihydro-benzo[1,4]dioxine-6-sulfonylamino)-phenylethynyl]-benzoic acid] returned an IC50 of 1000 to 100000 nM. For the molecule `Cc1cc(C(=O)O)ncc1C#Cc1ccccc1NS(=O)(=O)c1ccc2c(c1)Cc1ccccc1-2` [Compound 119, 5-{2-[2-(9H-fluorene-2-sulfonamido)phenyl]ethynyl}-4-methylpyridine-2-carboxylic acid], the IC50 was 100 to 1000 nM. For `COc1cccc(S(=O)(=O)Nc2ccc(F)cc2C#Cc2cnc(C(=O)O)c(C)c2)c1` [Compound 322, 5-{2-[5-fluoro-2-(3-methoxybenzene-sulfonamido)phenyl]ethynyl}-3-methylpyridine-2-carboxylic acid], the IC50 lay in the range of 1000 to 100000 nM.

Turning to `Cc1cc(C(=O)O)ncc1C#Cc1ccccc1NS(=O)(=O)c1cccc2c(N(C)C)ccnc12` [Compound 421, 5-[2-(4-Dimethylamino-quinoline-8-sulfonylamino)-phenylethynyl]-4-methyl-pyridine-2-carboxylic acid], the IC50 lay within 100 to 1000 nM. The figure for `NCCOCCOCCOc1ccc(C#Cc2ccc(C(=O)O)nc2)c(NS(=O)(=O)c2cccc3cccnc23)c1` [Compound 332, 5-[4-{2-[2-(2-Amino-ethoxy)-ethoxy]-ethoxy}-2-(quinoline-8-sulfonylamino)-phenylethynyl]-pyridine-2-carboxylic acid] is 1000 to 100000 nM.

Regarding `COc1ccc(S(=O)(=O)Nc2cc(Cl)c(Cl)cc2C#Cc2ccc(C(=O)O)nc2)c2ncccc12` [Compound 190, 5-{2-[4,5-dichloro-2-(5-methoxyquinoline-8-sulfonamido)phenyl]ethynyl}pyridine-2-carboxylic acid], the IC50 lay in the range of 10 to 100 nM. As for `COc1ccc(-c2cccc(S(=O)(=O)Nc3ccccc3C#Cc3ccc(C(=O)O)nc3)c2)c(OC)n1` [Compound 125, 5-(2-{2-[3-(2,6-dimethoxypyridin-3-yl)benzenesulfonamido]phenyl}-ethynyl)pyridine-2-carboxylic acid], the IC50 lay within 100 to 1000 nM. Regarding `Cc1ccc2cccnc2c1S(=O)(=O)Nc1cc(Br)ccc1C#Cc1ccc(C(=O)O)nc1` [Compound 186, 5-{2-[4-bromo-2-(7-methylquinoline-8-sulfonamido)phenyl]ethynyl}pyridine-2-carboxylic acid], the IC50 lay within 100 to 1000 nM. `O=C(O)c1ccc(C#Cc2ccccc2NS(=O)(=O)C2=Cc3ccccc3CC2)cn1` [Compound 81, 5-{2-[2-(3,4-dihydronaphthalene-2-sulfonamido)phenyl]ethynyl}pyridine-2-carboxylic acid]: the IC50 fell in the range of 100 to 1000 nM. Molecule `COc1ccc(S(C)(=O)=Nc2ccccc2C#Cc2ccc(C(=O)O)nc2)cc1` (stereo not shown) [Compound 428, 5-[2-(2-{[(4-methoxyphenyl)(methyl)oxo-λ6-sulfanylidene]amino}phenyl)ethynyl] pyridine-2-carboxylic acid] returned an IC50 of 1000 to 100000 nM.

These data come from patent US12351570B2 (MERCK PATENT GMBH, priority 2018, dated 2025).
